# Results reported in US20090131702A1, “METHOD FOR THE PRODUCTION OF METAL CARBOXYLATES AND THE METAL AMINOATE OR METAL HYDROXY ANALOGUE METHIONATE DERIVATIVES THEREOF, AND USE OF SAME AS GROWTH PROMOTERS IN ANIMAL FEED” (NOREL, S.A., priority 2003, published 2009).
# Where two headings read alike, the source gives them in different places. Marks after values point to notes of the source that are not given here.
# What was measured:
# [1] = Zinc concentration in the liver of piglets (Example 11); type: in vivo; details: end of 21-day experiment, 220 ppm of zinc added to base diet
# Source text: At the end of the experiment, one male and one female were selected at random from each batch to take a specimen of liver tissue and determine the zinc content.
# [2] = piglets, 21-41 days; 150 ppm of zinc added to base diet
# Procedure: 24 piglets were used (Large White*Large White×Landrace), 50% males and 50% females, weaned at 21 days of age and housed in 4 pens with 6 animals in each (3 males and 3 females).
# The zinc dose was calculated taking into account the zinc content of the ingredients and the maximum permitted dose (150 ppm) in all the treatments.
# The experimental period was 20 days.
# (§1) Control of production parameters was effected at the end of the experiment, recording the live weight, the daily growth and the consumption of feed.
# [3] = broilers, 150 ppm of zinc added to base diet
# Source text: 160 one-day old broilers of the Ross strain were used (without differentiation of sexes), housed in cages in groups of 10 animals.
# Control of production parameters was effected at 21 days of age, recording the live weight and the consumption of feed per batch.
# [4] = Test of efficacy in piglets: production parameters, zinc glycinate / formate / complex (Example 14); type: in vivo; details: 21-50 days, 130 ppm of zinc added to base diet
# Source text: The experimental period was 29 days.
# [5] = broilers
# [6] = Test in broilers: production parameters, zinc methioninate / formate / complex (Example 12); type: in vivo, broilers of the Ross strain; details: for MDC (mean daily consumption) / MDG (mean daily gain): 50 ppm of zinc added to base diet
# Source text: Four experimental treatments were used, comprising the same basic diet supplemented with different sources of zinc:
# Control of production parameters was effected at 21 and 42 days of age, recording the live weight and the consumption of feed per batch.
# [7] = piglets, 220 ppm of zinc added to base diet
# Procedure: 300 piglets were used (cross of Large White and Landrace), 50% males and 50% females, weaned at 21 days of age and housed in 30 pens with 10 animals in each (5 males and 5 females).
# Five experimental treatments were used, comprising the same basic diet, to which different sources of zinc are added:
# The zinc dose was calculated taking into account the zinc content of the ingredients of the feed and the maximum permitted dose (250 ppm of zinc in the finished feed) in the case of treatments T-0 to T-2, and the dose with promoter effect (2000 ppm) in the case of treatment T-3.
# The experimental period was 21 days.
# The experimental model was a design of random blocks, with 6 replications per treatment. Each replication comprised a batch of 10 animals.
# as §1
# [8] = 43 to 46 days of age, 50 ppm of zinc added to base diet
smiles,measurement,setting,value
"O=C[O-].O=C[O-].[Zn+2] [zinc formate, Zinc formate]",Liver zinc,[1],59.21a μg/g
same,GLW 21-41 d (gain in live weight),[2],8.00 b kg
same,MDC (mean daily consumption),[2],655.0 g/day
same,MDG (mean daily gain),[2],400.0 b g
same,MDC (mean daily consumption),[3]; 0-21 days,47.5 g/day
same,MDG (mean daily gain),[3]; 0-21 days,37.6 b g
same,LW 21 d (live weight),[3]; day 21,790 b g
same,GLW 21-50 d (gain in live weight),[4],12.50 b kg
same,MDC (mean daily consumption),[4],752.3 g/day
same,MDG (mean daily gain),[4],431.0 b g
same,Zinc excreted,[5]; [8],7.20^b mg
same,Zinc ingested,[5]; [8],13.3^a mg
same,zinc bioavailability (in words),[5]; 50 ppm of zinc,highest bioavailability
same,Bioavailability,"[5]; zinc, 43 to 46 days of age, 50 ppm of zinc added to base diet",45.8^b %
same,MDC (mean daily consumption),[6]; 0-21 days,48.3 g/day
same,MDG (mean daily gain),[6]; 0-21 days,35.2 b g
same,MDC (mean daily consumption),[6]; 0-42 days,100.4 g/day
same,MDG (mean daily gain),[6]; 0-42 days,55.0 b g
same,MDC (mean daily consumption),[6]; 21-42 days,152.5 g/day
same,MDG (mean daily gain),[6]; 21-42 days,74.8 b g
same,effect on production parameters (in words),"[6]; 50 ppm of zinc, control T-0 = zinc sulfate",same effect
same,LW 21 d (live weight),"[6]; day 21, 50 ppm of zinc added to base diet",740 b g
same,LW 42 d (live weight),"[6]; day 42, 50 ppm of zinc added to base diet",2310 b g
same,MDC (mean daily consumption),[7]; 21-28 days,312.3 g/day
same,MDG (mean daily gain),[7]; 21-28 days,268.6 B g
same,MDC (mean daily consumption),[7]; 21-42 days,752.3 g/day
same,MDG (mean daily gain),[7]; 21-42 days,512.6 b g
same,LW 28 d (live weight),[7]; day 28,8.76 ab kg
same,LW 42 d (live weight),[7]; day 42,14.30 b kg
